How the values were obtained:
[1] = tested on: carrageenan-induced acute inflammation in subcutaneous air pouch; assay: Air Pouch Model I (Example 1); format: in vivo, C57BL/6 mice; parameters: Activity score / Edema Score / Sum (of histology scores) / Fibroplastic proliferation score / Inflammation score: scale not given here; conditions: MAP 1.5 mg, Mon 200 μg; for IFN-γ in exudate (ELISA) / IL-6 in exudate (ELISA) / IL-10 in exudate (ELISA) / TNF-α in exudate (ELISA) / Activity score / Edema Score / Fibroplastic proliferation score / Inflammation score / Sum (of histology scores): dexamethasone 200 μg; for Leukocyte count in exudate / Lymphocyte count in exudate / Monocyte count in exudate / Neutrophil count in exudate / Exudate volume / Pouch Wall Weight: doses/mouse: dexamethasone 200 μg; for Exudate volume / Pouch Wall Weight: 24 h after carrageenan; for Activity score / Edema Score / Fibroplastic proliferation score / Inflammation score / Sum (of histology scores): pouch wall histology
Method: Healthy adult male C57BL/6 mice weighing between 20 and 30 g were supplied by Changzhou Cvens Experimental Animal Co. Ltd (Changzhou, Jiangsu Province, China). Prior to any experiments being conducted, mice were housed under standardized conditions (at a constant temperature or 22 t 2° C., with alternating 12 hour periods of light and darkness), and were fed on a standard mouse diet with water, for about a week.
General anesthesia was induced using intraperitoneal 3% chloral hydrate (Sinopharm Chemical Reagent Co., Ltd., Shanghai, China); 1 mL/10 g of body weight). The hair of the entire dorsum was shaved and depilated 1 day before sterile air injection.
Air pouches were produced by subcutaneous injection of sterile air (5 mL) into the intrascapular area of the mice. After three days, another injection of air (3 mL) was performed to maintain the pouches. In order to induce acute inflammation, three days after this final injection, animals received an injection of sterile carrageenan solution (CP Kelco, Taixing, Jiangsu Province, China; 1%, 0.5 mL; produced by adding 0.1 g of carrageenan powder into a beaker containing 10 mL of 0.9% saline solution and stirring). Mice were pre-treated with test samples or vehicle 1 hour before and 23 hours after the carrageenan injection into the subcutaneous air pouch. Animals were sacrificed 24 hours after the carrageenan injection.
Skin biopsies were taken from the air pouches. A part of the biopsy was fixed in formalin (produced by adding ultra pure water to 50 mL of a 40% formaldehyde solution (Nanchang Rain Dew Experimental Equipment Co., Ltd., Nanchang, […] Provence, China) up to a total volume of 500 mL) and analyzed by histological embedding in paraffin wax, sectioning and staining.
The cavity was washed with 4 mL of sterile phosphate buffer solution (pH 7.4; prepared by dissolving 4 g of NaCl, 0.1 g of KCl, 1.749 g of Na2HPO4.12H2O and 0.1 g of KH2PO4 in ultrapure water, adjusting the pH to 7.4 with HCl and diluting with water to a total volume of 500 mL).
Exudates were collected and volumes were quantified. The total number of cells was determined with a haematocytometer (ADVIA 2120 Hematology System, Siemens Healthineers).
In Table 1, MAP is a Mefp-1 solution, which is was prepared as follows. Blue mussels were harvested in the coastal area of Shandong Province, China. Mussel feet were collected, cut into small pieces and homogenized in an extraction buffer comprising 5% acetic acid in 4 mol/L of aqueous urea. The crude extracts were collected after centrifuging and then purified by liquid chromatography. […] The solutions that were employed below were prepared by adding saline solution to this semi-finished product to obtain a concentration as described in Table 1.

[2] = tested on: carrageenan-induced acute inflammation in subcutaneous air pouch; assay: Air Pouch Model: Topical Administration Versus Oral Administration (Example 4); conditions: 200 μg/mouse, Mon-O intragastric; for Exudate volume / Pouch Wall Weight: others injected into pouch; for Activity score / Edema Score / IFN-γ in exudate (ELISA) / IL-6 in exudate (ELISA) / Inflammation score / Leukocyte count in exudate / Sum (of histology scores) / TNF-α in exudate (ELISA): others into pouch

C[C@@H]1C[C@H]2[C@@H]3CCC4=CC(=O)C=C[C@]4(C)[C@@]3(F)[C@@H](O)C[C@]2(C)[C@@]1(O)C(=O)CO [Dexamethasone, dexamethasone]
IFN-γ in exudate (ELISA) [1]: 2879 ± 1267
IL-6 in exudate (ELISA) [1]: 3649 ± 1764
IL-10 in exudate (ELISA) [1]: 52.33 ± 11.60
TNF-α in exudate (ELISA) [1]: 71.31 ± 111.19
Leukocyte count in exudate [1]: 2.48e+08 mL⁻¹
Lymphocyte count in exudate [1]: 2.08e+08 mL⁻¹
Monocyte count in exudate [1]: 5e+06 mL⁻¹
Neutrophil count in exudate [1]: 2.2e+07 mL⁻¹
Exudate volume [1]: 3.60 ± 0.14 mL
Pouch Wall Weight [1]: 0.72 ± 0.09 g
Activity score [1]: 0.83
Edema Score [1]: 1.67
Fibroplastic proliferation score [1]: 0.00
Inflammation score [1]: 1.50
Sum (of histology scores) [1]: 4.00
Exudate volume [2]: 3.3 ± 0.15 mL
Pouch Wall Weight [2]: 0.63 ± 0.09 g
Activity score [2]: 0.67
Edema Score [2]: 1.67
IFN-γ in exudate (ELISA) [2]: 388.83 ± 130.02
IL-6 in exudate (ELISA) [2]: 428.05 ± 267.27
Inflammation score [2]: 1.83
Leukocyte count in exudate [2]: 3.49e+06 mL⁻¹
Sum (of histology scores) [2]: 4.17
TNF-α in exudate (ELISA) [2]: 65.08 ± 7.70

CC(C)(O)c1ccccc1CC[C@@H](SCC1(CC(=O)O)CC1)c1cccc(/C=C/c2ccc3ccc(Cl)cc3n2)c1 [Mon, Montelukast sodium]
IFN-γ in exudate (ELISA) ([1]; listed as Mon (oral)): 2495 ± 711
IL-6 in exudate (ELISA) ([1]; listed as Mon (oral)): 8453 ± 9758
IL-10 in exudate (ELISA) ([1]; listed as Mon (oral)): 52.59 ± 7.22
TNF-α in exudate (ELISA) ([1]; listed as Mon (oral)): 39.41 ± 17.62
IFN-γ in exudate (ELISA) ([1]; listed as Mon (topical)): 1690 ± 725
IL-6 in exudate (ELISA) ([1]; listed as Mon (topical)): 2528 ± 1538
IL-10 in exudate (ELISA) ([1]; listed as Mon (topical)): 68.18 ± 15.81
TNF-α in exudate (ELISA) ([1]; listed as Mon (topical)): 90.73 ± 109.02
Exudate volume ([1]; listed as Mon (oral)): 3.58 ± 0.15 mL
Pouch Wall Weight ([1]; listed as Mon (oral)): 0.67 ± 0.10 g
Exudate volume ([1]; listed as Mon (topical)): 3.68 ± 0.15 mL
Pouch Wall Weight ([1]; listed as Mon (topical)): 0.66 ± 0.13 g
Leukocyte count in exudate ([1]; listed as Mon (oral)): 2.38e+08 mL⁻¹
Lymphocyte count in exudate ([1]; listed as Mon (oral)): 1.98e+08 mL⁻¹
Monocyte count in exudate ([1]; listed as Mon (oral)): 7e+06 mL⁻¹
Neutrophil count in exudate ([1]; listed as Mon (oral)): 2.1e+07 mL⁻¹
Leukocyte count in exudate ([1]; listed as Mon (topical)): 3.82e+08 mL⁻¹
Lymphocyte count in exudate ([1]; listed as Mon (topical)): 3.22e+08 mL⁻¹
Monocyte count in exudate ([1]; listed as Mon (topical)): 1.7e+07 mL⁻¹
Neutrophil count in exudate ([1]; listed as Mon (topical)): 2.9e+07 mL⁻¹
Activity score [1]: 1.00
Edema Score ([1]; listed as Mon (oral)): 1.00
Fibroplastic proliferation score ([1]; listed as Mon (oral)): 0.33
Sum (of histology scores) ([1]; listed as Mon (oral)): 4.17
Fibroplastic proliferation score ([1]; listed as Mon (topical)): 0.83
Inflammation score ([1]; listed as Mon (topical)): 2.17
Sum (of histology scores) ([1]; listed as Mon (topical)): 5.50
Exudate volume ([2]; listed as Mon-O): 3.69 ± 0.14 mL
Pouch Wall Weight ([2]; listed as Mon-O): 0.68 ± 0.08 g
Exudate volume ([2]; listed as Mon-T): 3.54 ± 0.09 mL
Pouch Wall Weight ([2]; listed as Mon-T): 0.65 ± 0.06 g
Activity score ([2]; listed as Mon-O): 1.67
Edema Score ([2]; listed as Mon-O): 2.17
IFN-γ in exudate (ELISA) ([2]; listed as Mon-O): 557.95 ± 231.86
IL-6 in exudate (ELISA) ([2]; listed as Mon-O): 500.25 ± 292.84
Inflammation score ([2]; listed as Mon-O): 2.33
Leukocyte count in exudate ([2]; listed as Mon-O): 2.66e+06 mL⁻¹
Sum (of histology scores) ([2]; listed as Mon-O): 6.17
TNF-α in exudate (ELISA) ([2]; listed as Mon-O): 146.3 ± 70.74
Activity score ([2]; listed as Mon-T): 1.00
IFN-γ in exudate (ELISA) ([2]; listed as Mon-T): 568.19 ± 316.70
IL-6 in exudate (ELISA) ([2]; listed as Mon-T): 312.05 ± 189.23
Inflammation score ([2]; listed as Mon-T): 2.00
Leukocyte count in exudate ([2]; listed as Mon-T): 2.19e+06 mL⁻¹
TNF-α in exudate (ELISA) ([2]; listed as Mon-T): 80.37 ± 61.72

— patent publication US11672792B2, “Topical formulations comprising montelukast and combinations with mussel adhesive proteins” (ENLITISA (SHANGHAI) PHARMACEUTICAL CO., LTD, priority 2017, dated 2023)
